{
  "source": "patent US7521454B2",
  "about": "(Dainippon Sumitomo Pharma Co., Ltd., priority 2001, dated 2009)",
  "key": {"[1]": {"tested_on": "rat model of eosinophil leukocytic infiltration", "assay": "Rat model of eosinophil leukocytic infiltration (OVA, bronchoalveolar lavage)", "format": "in vivo", "details": "0.01 mg/kg intratracheal, 2.5 hours before induction, lavage 24 hours after", "procedure": "A rat was immunized intraperitoneally with 1 ml of a solution containing 1 mg of ovalbumin (OVA) and 100 mg of Al(OH)3 on day 0 and day 7. On day 14, a 1% OVA solution was sprayed for 15 minutes using a ultrasonic nebulizer to induce reactions. A test compound was administered intratracheally 2.5 hours before the induction. Bronchoalveolar lavage was performed 24 hours after the induction, and eosinocytes in the wash was stained with Hinkelman to count the number of stained cells. Sensi.−/Challe.+, CMC-Na, and Fluticasone were used as controls. FIG. 1 and the following table show the results."}, "male cynomolgus monkeys [2]": {"tested_on": "male cynomolgus monkeys", "assay": "Interferon-inducing activity in cynomolgus monkey (in vivo), serum interferon titer and vomition", "details": "10 mg/kg oral"}, "Balb/c male mouse": {"tested_on": "Balb/c male mouse", "assay": "Interferon-inducing activity in mouse (in vivo), serum interferon titer after oral dosing"}, "IL-4 production": {"tested_on": "IL-4 production", "assay": "Inhibitory activity against Th2 cytokine produced from sensitized spleen cells: IL-4", "format": "cell-based, mouse", "details": "OVA-sensitized BALB/c spleen cells, 3 days", "procedure": "(§1) A 7-week-old BALB/c mouse was immunized intraperitoneally with aluminum hydroxide gel (4 mg, 100 μl) having 10 μg of ovalbumin adsorbed thereon, and it was subjected to additional immunization with the same agent 14 days later. Seven days thereafter, spleen was taken out, and suspended in RPMI-1640 comprising inactivated fetal bovine serum (10%), 2-mercaptoethanol ([…]), penicillin G (100 U/ml), and streptomycin (100 μg/ml). Thus, a splenic cell suspension was prepared. Ovalbumin (0.5 mg/ml) and a test compound were added to a splenic cell suspension (5×10^6 cell/200 μl/well), and the resultant was cultured at 37° C. in the presence of 5% CO2 for 3 days. The cytokine level in the culture supernatant was quantified by ELISA. IFN-γ and IL-4 were assayed using a kit available from Amersham, and IL-5 was assayed using a kit available from Endogen."}, "[3]": {"tested_on": "human peripheral blood mononuclear cells (PBMC)", "assay": "Interferon-inducing activity in human peripheral blood mononuclear cells (PBMC), IFN-α ELISA", "format": "cell-based", "details": "24 h", "procedure": "Peripheral bloods were sampled from 5 healthy volunteers using a syringe containing heparin, and peripheral blood mononuclear cells (PBMC) were prepared by density gradient centrifugation utilizing the Lymphoprep™ (NYCOMED PHARMA AS). PBMCs were washed twice in serum-free RPMI 1640 medium and adjusted at 1×10^6 cells/ml in RPMI 1640 medium comprising 10% fetal bovine serum. The product was cultured in the presence of a test compound dissolved in dimethyl sulfoxide (final concentration: 0.1%) in an incubator in the presence of 5% CO^2 at 37° C. for 24 hours. As a control, 0.1% dimethyl sulfoxide containing no test compound was used. The culture supernatant was aseptically collected by filtration. Thereafter, the supernatant was cryopreserved at −20° C. or lower until it was subjected to the assay for IFN-inducing activity. Human IFN-α in the culture supernatant was quantified using a highly sensitive ELISA system (Amersham)."}, "mouse spleen cell": {"tested_on": "mouse spleen cell", "assay": "cells", "format": "cell-based"}, "[4]": {"assay": "Gastrointestinal absorption in rat (drug level in blood by HPLC)", "format": "in vivo", "details": "SD male rat", "procedure": "A test compound was suspended in an aqueous solution of 0.5% carboxymethylcellulose, and the resulting suspension was orally administered to an SD male rat. Blood was sampled with the elapse of time, and the level of the drug in blood was assayed by HPLC."}, "IL-5 production": {"tested_on": "IL-5 production", "assay": "Inhibitory activity against Th2 cytokine produced from sensitized spleen cells: IL-5", "format": "cell-based, mouse", "details": "OVA-sensitized BALB/c spleen cells, 3 days", "procedure": "as §1"}, "male cynomolgus monkeys [5]": {"tested_on": "male cynomolgus monkeys", "details": "po, 10 mg/kg, 4 h"}, "[6]": {"assay": "Solubility in citric acid/disodium phosphate buffers", "details": "citric acid/disodium phosphate buffer, thermodynamic from solid", "experimental": "5.53% citric acid (monohydrate) and 1.75% disodium phosphate (anhydrous) were mixed together to prepare buffers (pH 2.5, 5.5, 7.4). A compound was added thereto, the mixture was stirred in a vortex mixer and subjected to ultrasonication for 30 minutes. Thereafter, the resultant was stirred in a vortex mixer again and then centrifuged at 15,000 rpm for 20 minutes. The levels of the compounds in the supernatants were then quantified by HPLC."}},
  "note": "Read-outs that look alike come from different tables or passages of the source.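 Throughout, for Interferon-inducing activity (human IFN-α in culture supernatant): IFN-α in pg/ml with a 1.25 pg/ml detection limit.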",
  "data": [
    {"compound": "C[C@@H]1C[C@H]2[C@@H]3C[C@H](F)C4=CC(=O)C=C[C@]4(C)[C@@]3(F)[C@@H](O)C[C@]2(C)[C@@]1(O)C(=O)SCF", "note": "[Fluticasone, reference compound]", "values": [
      {"measurement": "eosinocytes in bronchoalveolar lavage, Average", "setting": "[1]", "result": "300.07 ×10^4 cells"}
    ]},
    {"compound": "CCCCOc1nc(N)c2nc(Br)n(Cc3ccc(Cl)nc3)c2n1", "note": "[Reference Example 2, 8-Bromo-2-butoxy-9-(6-chloro-3-pyridylmethyl)adenine]", "values": [
      {"measurement": "vomition observed", "setting": "male cynomolgus monkeys [2]; cynomolgus monkeys", "result": "4 out of 5 samples"},
      {"measurement": "interferon titer in blood serum (average±SE)", "setting": "male cynomolgus monkeys [2]; four hours after the administration, five male cynomolgus monkeys", "result": "18,305±5578 U/ml"}
    ]},
    {"compound": "1-(2-hydroxy-2-methylpropyl)-2-methoxyethyl-1H-imidazo[4,5-c]quinoline-4-amine [Comparative Example 2, reference compound]", "values": [
      {"measurement": "Interferon-inducing activity", "setting": "Balb/c male mouse; dosage 0.1 mg/kg oral, serum 2 h after dosing, Balb/c mouse", "result": "1638 ± 246", "unit": "U/ml"},
      {"measurement": "Interferon-inducing activity", "setting": "Balb/c male mouse; dosage 0.3 mg/kg oral, serum 2 h after dosing, Balb/c mouse", "result": "1961 ± 950", "unit": "U/ml"},
      {"measurement": "Inhibitory activity against IL-4 production", "setting": "IL-4 production; concentration 0.1 nM", "result": "90 % of control"},
      {"measurement": "Inhibitory activity against IL-4 production", "setting": "IL-4 production; concentration 1 nM", "result": "24 % of control"},
      {"measurement": "Inhibitory activity against IL-4 production", "setting": "IL-4 production; concentration 10 nM", "result": "1 % of control"},
      {"measurement": "Inhibitory activity against IL-4 production", "setting": "IL-4 production; concentration 100 nM", "result": "<1 % of control"},
      {"measurement": "Interferon-inducing activity (human IFN-α in culture supernatant)", "setting": "[3]; concentration 0.3 nM", "result": "— ((−) indicates a detection limit (1.25 pg/ml) or lower)"},
      {"measurement": "Interferon-inducing activity (human IFN-α in culture supernatant)", "setting": "[3]; concentration 1 nM", "result": "— ((−) indicates a detection limit (1.25 pg/ml) or lower)"},
      {"measurement": "Interferon-inducing activity (human IFN-α in culture supernatant)", "setting": "[3]; concentration 3 nM", "result": "6 ± 5", "unit": "pg/mL"},
      {"measurement": "Interferon-inducing activity: Minimum effective concentration", "setting": "mouse spleen cell", "result": 3, "unit": "nM"},
      {"measurement": "Cmax", "setting": "[4]; dose 3 mg/kg oral", "result": 19, "unit": "ng/mL"},
      {"measurement": "Tmax", "setting": "[4]; dose 3 mg/kg oral", "result": 1, "unit": "h"},
      {"measurement": "Cmax", "setting": "[4]; dose 10 mg/kg oral", "result": 15, "unit": "ng/mL"},
      {"measurement": "Tmax", "setting": "[4]; dose 10 mg/kg oral", "result": 0.5, "unit": "h"},
      {"measurement": "Inhibitory activity against IL-5 production", "setting": "IL-5 production; concentration 0.1 nM", "result": "106 % of control"},
      {"measurement": "Inhibitory activity against IL-5 production", "setting": "IL-5 production; concentration 1 nM", "result": "73 % of control"},
      {"measurement": "Inhibitory activity against IL-5 production", "setting": "IL-5 production; concentration 10 nM", "result": "18 % of control"},
      {"measurement": "Inhibitory activity against IL-5 production", "setting": "IL-5 production; concentration 100 nM", "result": "10 % of control"}
    ]},
    {"compound": "CCCCNc1nc(N)c2nc(O)n(Cc3ccc(OC)nc3)c2n1", "note": "[Example 19, 2-Butylamino-8-hydroxy-9-(6-methoxy-3-pyridylmethyl)adenine]", "values": [
      {"measurement": "Interferon-inducing activity", "setting": "Balb/c male mouse; po, 0.01 mg/kg, 2 h", "result": "14 ± 5", "unit": "U/ml"},
      {"measurement": "Interferon-inducing activity", "setting": "Balb/c male mouse; po, 0.03 mg/kg, 2 h", "result": "199 ± 84", "unit": "U/ml"},
      {"measurement": "Interferon-inducing activity", "setting": "Balb/c male mouse; po, 0.1 mg/kg, 2 h", "result": "383 ± 122", "unit": "U/ml"},
      {"measurement": "Interferon-inducing activity", "setting": "Balb/c male mouse; po, 0.3 mg/kg, 2 h", "result": "601 ± 187", "unit": "U/ml"},
      {"measurement": "activity at 0.001 µM", "setting": "IL-4 production; Mus musculus, 72 h, concentration 1 nM, read-out: Inhibitory activity against IL-4 production", "result": 32, "unit": "%"},
      {"measurement": "activity at 0.01 µM", "setting": "IL-4 production; Mus musculus, 72 h, concentration 10 nM, read-out: Inhibitory activity against IL-4 production", "result": "< 1", "unit": "%"},
      {"measurement": "activity at 0.1 µM", "setting": "IL-4 production; Mus musculus, 72 h, concentration 100 nM, read-out: Inhibitory activity against IL-4 production", "result": "< 1", "unit": "%"},
      {"measurement": "Interferon-inducing activity (human IFN-α in culture supernatant)", "setting": "[3]; concentration 1 nM", "result": "5 ± 1", "unit": "pg/mL"},
      {"measurement": "Interferon-inducing activity (human IFN-α in culture supernatant)", "setting": "[3]; concentration 3 nM", "result": "12 ± 11", "unit": "pg/mL"},
      {"measurement": "Interferon-inducing activity (human IFN-α in culture supernatant)", "setting": "[3]; concentration 10 nM", "result": "48 ± 34", "unit": "pg/mL"},
      {"measurement": "Interferon-inducing activity (human IFN-α in culture supernatant)", "setting": "[3]; concentration 30 nM", "result": "60 ± 33", "unit": "pg/mL"},
      {"measurement": "minimal effective concentration", "setting": "mouse spleen cell; Mus musculus, 24 h, read-out: Interferon-inducing activity: Minimum effective concentration", "result": 0.003, "unit": "µM"},
      {"measurement": "Cmax", "setting": "[4]; blood, dose 3 mg/kg oral, read-out: Cmax", "result": 188, "unit": "ng/mL"},
      {"measurement": "Tmax", "setting": "[4]; blood, dose 3 mg/kg oral, read-out: Tmax", "result": 4, "unit": "h"},
      {"measurement": "interferon titer in blood serum (average±SE)", "setting": "male cynomolgus monkeys [5]", "result": "12,173±6619 U/ml"},
      {"measurement": "solubility at 30 min", "setting": "[6]; pH 2.5, aqueous buffer", "result": 130, "unit": "µg/mL"},
      {"measurement": "solubility at 30 min", "setting": "[6]; pH 5.5, aqueous buffer", "result": 2, "unit": "µg/mL"},
      {"measurement": "solubility at 30 min", "setting": "[6]; pH 7.4, aqueous buffer", "result": 2, "unit": "µg/mL"},
      {"measurement": "activity at 0.001 µM", "setting": "IL-5 production; Mus musculus, 72 h, concentration 1 nM, read-out: Inhibitory activity against IL-5 production", "result": 83, "unit": "%"},
      {"measurement": "activity at 0.01 µM", "setting": "IL-5 production; Mus musculus, 72 h, concentration 10 nM, read-out: Inhibitory activity against IL-5 production", "result": 16, "unit": "%"},
      {"measurement": "activity at 0.1 µM", "setting": "IL-5 production; Mus musculus, 72 h, concentration 100 nM, read-out: Inhibitory activity against IL-5 production", "result": 13, "unit": "%"}
    ]}
  ]
}
